These compounds were tested against T1, PRMT5/MEP50 (Homo sapiens, UniProt O14744) (assay: PRMT5 Biochemical Assay (PRMT5/MEP50 enzyme assay on peptide substrate, 3H-SAM Flashplate)).
T1 construct: Flag-PRMT5; 6His-MEP50
T1 sequence (O14744 with tags, fused parts or gaps): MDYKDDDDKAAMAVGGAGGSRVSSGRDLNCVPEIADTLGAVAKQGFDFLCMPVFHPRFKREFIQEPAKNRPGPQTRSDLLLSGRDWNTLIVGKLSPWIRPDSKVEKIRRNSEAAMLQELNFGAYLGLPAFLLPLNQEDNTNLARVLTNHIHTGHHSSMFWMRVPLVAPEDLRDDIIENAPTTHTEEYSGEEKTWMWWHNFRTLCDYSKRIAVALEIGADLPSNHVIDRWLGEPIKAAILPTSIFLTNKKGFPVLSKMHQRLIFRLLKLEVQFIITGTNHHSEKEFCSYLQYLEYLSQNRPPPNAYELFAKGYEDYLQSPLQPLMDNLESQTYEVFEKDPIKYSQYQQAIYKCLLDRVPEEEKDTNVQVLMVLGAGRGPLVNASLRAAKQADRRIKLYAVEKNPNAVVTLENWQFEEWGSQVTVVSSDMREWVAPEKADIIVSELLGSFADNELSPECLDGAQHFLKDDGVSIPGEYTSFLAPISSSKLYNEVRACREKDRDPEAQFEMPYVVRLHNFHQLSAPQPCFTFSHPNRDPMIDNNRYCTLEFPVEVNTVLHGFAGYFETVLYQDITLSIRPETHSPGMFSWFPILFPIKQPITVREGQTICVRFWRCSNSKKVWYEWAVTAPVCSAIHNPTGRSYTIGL
T1 sequence (Q9BQA1 with tags, fused parts or gaps partner): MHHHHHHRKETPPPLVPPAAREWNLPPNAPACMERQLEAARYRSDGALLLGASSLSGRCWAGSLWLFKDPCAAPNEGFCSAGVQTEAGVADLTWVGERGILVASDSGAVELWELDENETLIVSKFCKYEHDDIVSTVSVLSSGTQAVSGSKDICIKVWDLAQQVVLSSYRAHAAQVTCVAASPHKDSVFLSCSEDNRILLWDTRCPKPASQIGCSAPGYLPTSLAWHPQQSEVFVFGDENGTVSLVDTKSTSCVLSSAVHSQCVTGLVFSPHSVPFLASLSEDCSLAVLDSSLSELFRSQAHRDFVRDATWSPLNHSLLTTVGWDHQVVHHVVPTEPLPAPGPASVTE
Excerpt: General Materials. S-adenosylmethionine (SAM), S-adenosylhomocysteine (SAH), bicine, KCl, Tween20, dimethylsulfoxide (DMSO), bovine skin gelatin (BSG), and Tris(2-carboxyethyl)phosphine hydrochloride solution (TCEP) were purchased from Sigma-Aldrich at the highest level of purity possible. ^3H-SAM was purchase from American Radiolabeled Chemicals with a specific activity of 80 Ci/mmol. 384-well streptavidin Flashplates were purchased from PerkinElmer.
Substrates. Peptide representative of human histone H4 residues 1-15 was synthesized with a C-terminal linker-affinity tag motif and a C-terminal amide cap by 21st Century Biochemicals. The peptide was high high-perfomance liquid chromatography (HPLC) purified to greater than 95% purity and confirmed by liquid chromatography mass spectrometry (LC-MS). The sequence was Ac-[…][K-Biot]-amide (SEQ ID NO.:3).
Molecular Biology: Full-length human PRMT5 (NM_006109.3) transcript variant 1 clone was amplified from a fetal brain cDNA library, incorporating flanking 5′ sequence encoding a FLAG tag ([…]) (SEQ ID NO.:4) fused directly to Ala 2 of PRMT5. Full-length human MEP50 (NM_024102) clone was amplified from a human testis cDNA library incorporating a 5′ sequence encoding a 6-histidine tag (MHHHHHH) (SEQ ID NO.:5) fused directly to Arg 2 of MEP50. The amplified genes were sublconed into pENTR/D/TEV (Life Technologies) and subsequently transferred by Gateway™ attL×attR recombination to pDEST8 baculvirus expression vector (Life Technologies).
Protein Expression. Recombinant baculovirus and Baculovirus-Infected Insect Cells (BIIC) were generated according to Bac-to-Bac kit instructions (Life Technologies) and Wasilko, 2006, respectively. Protein over-expression was accomplished by infecting exponentially growing Spodoptera frugiperda (SF9) cell culture at 1.2×10^6cell/ml with a 5000 fold dilution of BIIC stock. Infections were carried out at 27° C. for 72 hours, harvested by centrifugation, and stored at −80° C. for purification.
Protein Purification. […] Flag-PRMT5/6His-MeP50 was eluted with 300 mM Imidazole in the same buffer. The purity of recovered protein was 87%. Reference: Wasilko, D. J. and S. E. Lee: “TIPS: titerless infected-cells preservation and scale-up” Bioprocess J., 5 (2006), pp. 29-32.
General Procedure for PRMT5/MEP50 Enzyme Assays on Peptide Substrates. The assays were all performed in a buffer consisting of 20 mM Bicine (pH=7.6), 1 mM TCEP, 0.005% BSG, and 0.002% Tween20, prepared on the day of use. Compounds in 100% DMSO (1 ul) were spotted into a polypropylene 384-well V-bottom plates (Greiner) using a Platemate Plus outfitted with a 384-channel head (Thermo Scientific). DMSO (1 ul) was added to Columns 11, 12, 23, 24, rows A-H for the maximum signal control and 1 ul of SAH, a known product and inhibitor of PRMT5/MEP50, was added to columns 11, 12, 23, 24, rows I-P for the minimum signal control. A cocktail (40 ul) containing the PRMT5/MEP50 enzyme and the peptide was added by Multidrop Combi (Thermo-Fisher). The compounds were allowed to incubate with PRMT5/MEP50 for 30 min at 25 degrees Celsius, then a cocktail (10 ul) containing ^3H-SAM was added to initiate the reaction (final volume=51 ul). The final concentrations of the components were as follows: PRMT5/MEP50 was 4 nM, ^3H-SAM was 75 nM, peptide was 40 nM, SAH in the minimum signal control wells was 100 uM, and the DMSO concentration was […]. The assays were stopped by the addition of non-radioactive SAM (10 ul) to a final concentration of 600 uM, which dilutes the ^3H-SAM to a level where its incorporation into the peptide substrate is no longer detectable. 50 ul of the reaction in the 384-well polypropylene plate was then transferred to a 384-well Flashplate and the biotinylated peptides were allowed to bind to the streptavidin surface for at least 1 hour before being washed three times with 0.1% Tween20 in a Biotek ELx405 plate washer. […]
Work on `COc1cccc(-c2cccc(OCC(O)CN3CCc4ccccc4C3)c2)c1` (stereo not drawn) [Compound 74] yielded an IC50 of 101 to 1000 nM. Work on `COc1ccc(-c2cccc(OCC(O)CN3CCc4ccccc4C3)c2)cc1` (stereo not drawn) [Compound 75, 1-(3,4-dihydroisoquinolin-2(1H)-yl)-3-((4′-methoxy-[1,1′-biphenyl]-3-yl)oxy)propan-2-ol] yielded an IC50 of 101 to 1000 nM. `OC(COc1cccc(-c2cncc(F)c2)c1)CN1CCc2ccccc2C1` (stereo not drawn) [Compound 76] showed an IC50 of 1000 to 10000 nM. In the case of `OC(COc1cccc(-c2ccc(F)cc2)c1)CN1CCc2ccccc2C1` (stereo not drawn) [Compound 77], the IC50 is reported as 1000 to 10000 nM. For `Cc1ccc(-c2cccc(OCC(O)CN3CCc4ccccc4C3)c2)cn1` (stereo not drawn) [Compound 78], the IC50 was 1000 to 10000 nM. `O=C(NC1CCOCC1)c1cccc(NCC(O)CN2CCc3ccccc3C2)c1` (stereo not drawn) [Compound 79] showed an IC50 of 10000 to 40000 nM. For `CC1c2ccccc2CCN1CC(O)COc1cccc(-c2ccc3ncn(C)c3c2)c1` (stereo not drawn) [Compound 80], the IC50 was 101 to 1000 nM. In the case of `CC(C)n1cnc2ccc(-c3cccc(OCC(O)CN4CCc5ccccc5C4)c3)cc21` (stereo not drawn) [Compound 81], the IC50 is reported as 101 to 1000 nM. With `COc1ccc(Cn2cnc3ccc(-c4cccc(OCC(O)CN5CCc6ccccc6C5)c4)cc32)cc1` (stereo not drawn) [Compound 82, 1-(3,4-dihydroisoquinolin-2(1H)-yl)-3-(3-(1-(4-methoxybenzyl)-1H-benzo[d]imidazol-6-yl)phenoxy)propan-2-ol] the IC50 was 101 to 1000 nM. `OC(COc1cccc(-c2ccc3nc[nH]c3c2)c1)CN1CCc2ccccc2C1` (stereo not drawn) [Compound 83] was tested, and the IC50 was 101 to 1000 nM. `OC(COc1cccc(-c2ccc3c(c2)OCCO3)c1)CN1CCc2ccccc2C1` (stereo not drawn) [Compound 85, 1-(3-(2,3-dihydrobenzo[b][1,4]dioxin-6-yl)phenoxy)-3-(3,4-dihydroisoquinolin-2(1H)-yl)propan-2-ol] showed an IC50 of 101 to 1000 nM. For `OC(COc1cccc(-c2cccc3c2oc2ccccc23)c1)CN1CCc2ccccc2C1` (stereo not drawn) [Compound 86, 1-(3-(dibenzo[b,d]furan-4-yl)phenoxy)-3-(3,4-dihydroisoquinolin-2(1H)-yl)propan-2-ol], the IC50 was 101 to 1000 nM. Compound `OC(COc1cccc(-c2cccc(C(F)(F)F)c2)c1)CN1CCc2ccccc2C1` (stereo not drawn) [Compound 87] has an IC50 of 1000 to 10000 nM. Work on `COc1ccc(-c2cccc(OCC(O)CN3CCc4ccccc4C3)c2)c(Cl)c1` (stereo not drawn) [Compound 88] yielded an IC50 of 101 to 1000 nM. `OC(COc1cccc(-c2cnc3ccccc3c2)c1)CN1CCc2ccccc2C1` (stereo not drawn) [Compound 89, 1-(3,4-dihydroisoquinolin-2(1H)-yl)-3-(3-(quinolin-3-yl)phenoxy)propan-2-ol] gave an IC50 of 101 to 1000 nM. With `COc1ccc(-c2cccc(OCC(O)CN3CCc4ccccc4C3)c2)c(C)c1` (stereo not drawn) [Compound 90] the IC50 was 101 to 1000 nM. `OC(COc1cccc(-c2cccc(Cl)c2)c1)CN1CCc2ccccc2C1` (stereo not drawn) [Compound 91] was tested, and the IC50 was 1000 to 10000 nM. `OC(COc1cccc(-c2ccccc2Cl)c1)CN1CCc2ccccc2C1` (stereo not drawn) [Compound 92] was tested, and the IC50 was 101 to 1000 nM. With `N#Cc1ccccc1-c1cccc(OCC(O)CN2CCc3ccccc3C2)c1` (stereo not drawn) [Compound 93] the IC50 was 101 to 1000 nM. `N#Cc1ccc(-c2cccc(OCC(O)CN3CCc4ccccc4C3)c2)cc1` (stereo not drawn) [Compound 94] gave an IC50 of 101 to 1000 nM. In the case of `Oc1cccc(-c2cccc(OCC(O)CN3CCc4ccccc4C3)c2)c1` (stereo not drawn) [Compound 95], the IC50 is reported as 101 to 1000 nM. For `Oc1ccc(-c2cccc(OCC(O)CN3CCc4ccccc4C3)c2)cc1` (stereo not drawn) [Compound 96], the IC50 was 1000 to 10000 nM. Compound `OC(COc1cccc(-c2ccncc2)c1)CN1CCc2ccccc2C1` (stereo not drawn) [Compound 97] has an IC50 of 1000 to 10000 nM. Work on `OC(COc1cccc(-c2ccccn2)c1)CN1CCc2ccccc2C1` (stereo not drawn) [Compound 98] yielded an IC50 of 1000 to 10000 nM. Work on `CN(CC(O)CN1CCc2ccccc2C1)c1cccc(C(=O)NC2CCOCC2)c1` (stereo not drawn) [Compound 99] yielded an IC50 of 10000 to 40000 nM. For `COc1cccc2c1CN(CC(O)COc1cccc(-c3ccc4ncn(C)c4c3)c1)CC2` (stereo not drawn) [Compound 100], the IC50 was 1000 to 10000 nM. Work on `CC1CN(CC(O)COc2cccc(-c3ccc4ncn(C)c4c3)c2)Cc2ccccc21` (stereo not drawn) [Compound 101] yielded an IC50 of 1000 to 10000 nM. In the case of `OC(COc1cccc(-c2ccc3ncn(C4CCOCC4)c3c2)c1)CN1CCc2ccccc2C1` (stereo not drawn) [Compound 103, 1-(3,4-dihydroisoquinolin-2(1H)-yl)-3-(3-(1-(tetrahydro-2H-pyran-4-yl)-1H-benzo[d]imidazol-6-yl)phenoxy)propan-2-ol], the IC50 is reported as 101 to 1000 nM. `OC(COc1cccc(-c2ccc3ncn(-c4ccccc4)c3c2)c1)CN1CCc2ccccc2C1` (stereo not drawn) [Compound 104, 1-(3,4-dihydroisoquinolin-2(1H)-yl)-3-(3-(1-phenyl-1H-benzo[d]imidazol-6-yl)phenoxy)propan-2-ol] gave an IC50 of 101 to 1000 nM. In the case of `OC(COc1cccc(-c2ccc3[nH]ncc3c2)c1)CN1CCc2ccccc2C1` (stereo not drawn) [Compound 107], the IC50 is reported as 101 to 1000 nM. Work on `O=c1[nH]c2ccc(-c3cccc(OCC(O)CN4CCc5ccccc5C4)c3)cc2[nH]1` (stereo not drawn) [Compound 109, 5-(3-(3-(3,4-dihydroisoquinolin-2(1H)-yl)-2-hydroxypropoxy)phenyl)-1H-benzo[d]imidazol-2(3H)-one] yielded an IC50 of 101 to 1000 nM. In the case of `COc1cc(Cl)cc(-c2cccc(OCC(O)CN3CCc4ccccc4C3)c2)c1` (stereo not drawn) [Compound 110], the IC50 is reported as 101 to 1000 nM. `N#CCc1cccc(-c2cccc(OCC(O)CN3CCc4ccccc4C3)c2)c1` (stereo not drawn) [Compound 111] was tested, and the IC50 was 101 to 1000 nM. For `Cc1ccncc1-c1cccc(OCC(O)CN2CCc3ccccc3C2)c1` (stereo not drawn) [Compound 113, 1-(3,4-dihydroisoquinolin-2(1H)-yl)-3-(3-(4-methylpyridin-3-yl)phenoxy)propan-2-ol], the IC50 was 101 to 1000 nM. With `Cn1cc2ccc(-c3cccc(OCC(O)CN4CCc5ccccc5C4)c3)cc2n1` (stereo not drawn) [Compound 114] the IC50 was 101 to 1000 nM. `Cn1cc2cc(-c3cccc(OCC(O)CN4CCc5ccccc5C4)c3)ccc2n1` (stereo not drawn) [Compound 115] was tested, and the IC50 was 1000 to 10000 nM. In the case of `Cn1cnc2ccc(-c3cccc(NCC(O)CN4CCc5ccccc5C4)n3)cc21` (stereo not drawn) [Compound 117, 1-(3,4-Dihydroisoquinolin-2(1H)-yl)-3-((6-(1-methyl-1H-benzo[d]imidazol-6-yl)pyridin-2-yl)amino)propan-2-ol], the IC50 is reported as 101 to 1000 nM. `Cn1cnc2ccc(-c3ccnc(NCC(O)CN4CCc5ccccc5C4)n3)cc21` (stereo not drawn) [Compound 119] was tested, and the IC50 was 101 to 1000 nM. With `Cn1cnc2ccc(-c3nccc(NCC(O)CN4CCc5ccccc5C4)n3)cc21` (stereo not drawn) [Compound 120, 1-(3,4-dihydroisoquinolin-2(1H)-yl)-3-((2-(1-methyl-1H-benzo[d]imidazol-6-yl)pyrimidin-4-yl)amino)propan-2-ol] the IC50 was 1000 to 10000 nM. With `Cn1cnc2ccc(-c3cncc(NCC(O)CN4CCc5ccccc5C4)n3)cc21` (stereo not drawn) [Compound 121, 1-(3,4-dihydroisoquinolin-2(1H)-yl)-3-((6-(1-methyl-1H-benzo[d]imidazol-6-yl)pyrazin-2-yl)amino)propan-2-ol] the IC50 was 101 to 1000 nM. `CC1Cc2ccccc2CN1CC(O)COc1cccc(-c2ccc3ncn(C)c3c2)c1` (stereo not drawn) [Compound 122] gave an IC50 of 1000 to 10000 nM. Compound `OC(COc1cccc(-c2ccc(C(F)(F)F)cc2C(F)(F)F)c1)CN1CCc2ccccc2C1` (stereo not drawn) [Compound 124] has an IC50 of 101 to 1000 nM. Compound `CN(C)c1ncc(-c2cccc(OCC(O)CN3CCc4ccccc4C3)c2)cn1` (stereo not drawn) [Compound 125, 1-(3,4-dihydroisoquinolin-2(1H)-yl)-3-(3-(2-(dimethylamino)pyrimidin-5-yl)phenoxy)propan-2-ol] has an IC50 of 101 to 1000 nM. `O=C(c1cccc(-c2cccc(OCC(O)CN3CCc4ccccc4C3)c2)c1)N1CCOCC1` (stereo not drawn) [Compound 126, (3′-(3-(3,4-dihydroisoquinolin-2(1H)-yl)-2-hydroxypropoxy)-[1,1′-biphenyl]-3-yl)(morpholino)methanone] gave an IC50 of 101 to 1000 nM. `OC(COc1cccc(-c2ccc(C(F)(F)F)cc2Cl)c1)CN1CCc2ccccc2C1` (stereo not drawn) [Compound 127] gave an IC50 of 101 to 1000 nM.

From patent publication US20180298010A1, “PRMT5 INHIBITORS AND USES THEREOF” (Epizyme, Inc., priority 2012, published 2018)
